Reference: patent US20070249607A1, “NK-1 AND SEROTONIN TRANSPORTER INHIBITORS” (Bristol-Myers Squibb Company, priority 2006, published 2007)
Read-outs that look alike come from different tables or passages of the source.

How the values were obtained:
[1] = target: T1, human serotonin transporters (Homo sapiens, UniProt P31645); experiment: Serotonin transporter binding assay ([3H]-citalopram competition, HEK-hSERT cell membranes); details: HEK-hSERT membranes, [3H]-citalopram displacement, read-out: SERT IC50
T1 construct: expressed in transfected cells
T1 sequence (P31645 whole entry): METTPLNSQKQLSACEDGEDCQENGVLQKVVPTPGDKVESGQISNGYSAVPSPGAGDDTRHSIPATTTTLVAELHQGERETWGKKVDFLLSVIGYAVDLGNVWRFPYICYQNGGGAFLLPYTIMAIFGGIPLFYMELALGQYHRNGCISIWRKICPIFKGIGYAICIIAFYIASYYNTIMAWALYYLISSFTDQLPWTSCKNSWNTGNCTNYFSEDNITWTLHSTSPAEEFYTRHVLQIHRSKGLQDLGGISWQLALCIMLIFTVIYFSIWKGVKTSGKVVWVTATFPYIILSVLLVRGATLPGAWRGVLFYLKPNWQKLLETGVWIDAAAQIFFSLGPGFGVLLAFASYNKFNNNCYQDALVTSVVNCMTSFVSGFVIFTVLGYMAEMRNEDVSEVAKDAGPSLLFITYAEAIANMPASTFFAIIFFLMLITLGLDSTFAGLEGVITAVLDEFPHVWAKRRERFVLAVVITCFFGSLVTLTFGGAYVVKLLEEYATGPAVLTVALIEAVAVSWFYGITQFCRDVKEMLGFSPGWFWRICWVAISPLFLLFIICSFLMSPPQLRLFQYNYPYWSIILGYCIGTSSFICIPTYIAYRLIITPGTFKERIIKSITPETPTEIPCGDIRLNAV
Experimental: Serotonin transporter binding assay. HEK-293 cells that stably express human serotonin transporters (HEK-hSERT cells) were grown at 37° C. in 5% CO2 as a monolayer in medium consisting of EMEM supplemented with 10% fetal bovine serum and G418 sulfate (500 μg/ml). To prepare membranes for radioligand binding experiments, cells were rinsed twice with phosphate-buffered saline (138 mM NaCl, 4.1 mM KCl, 5.1 mM Na2PO4, 1.5 mM KH2PO4, 11.1 mM glucose, pH 7.4). Cells were transferred from plates to polypropylene tubes (16×100 mm), centrifuged at 1,200×g for 5 min and were frozen at −80° C. until assay. Following centrifugation, pellets were resuspended by homogenization in buffer consisting of 50 mM Tris (pH 7.7 at 25° C.), 120 mM NaCl and 5 mM KCl and then centrifuged at 32,000×g for 10 min. Following centrifugation, supernatants were discarded and pellets were resuspended in buffer consisting of 50 mM Tris (pH 7.4 at 25° C.), 150 mM NaCl and 5 mM KCl. Membrane homogenates (200 μl/plate) were incubated with 1 nM [^3H]-citalopram (specific activity=85 Ci/mmol) and increasing concentrations of test compounds for 1 hr at 25° C. in a total volume of 250 μl. The assay buffer consisted of 50 mM Tris (pH 7.4 at 25° C.), 120 mM NaCl and 5 mM KCl (pH 7.4 with conc. HCl). Plates were incubated for 1 hr at 25° C., then filtered through 0.5% PEI treated Whatman GF/B filters using a Brandel cell harvester. Filters were washed three times with 3 ml of ice-cold tris wash buffer. Non-specific binding was defined with 10 μM fluoxetine. Amount of radioligand bound in the presence and absence of competitor was analyzed by plotting (-)log drug concentration versus the amount of radioligand specifically bound. The midpoint of the displacement curve (IC50, nM), signifies the potency. Ki values can be calculated using the method of Cheng and Prusoff (Cheng and Prusoff, BiochemicalPharmacology, Vol 22, pp. 3099-3108, Pergamon Press (1973)).

[2] = target: T2, neurokinin-1 (NK-1) receptor (Homo sapiens, UniProt P25103); experiment: NK-1 Binding assay ([125I] Substance P competition, U373 cell membranes); details: U373 membranes, [125I] Substance P displacement, read-out: NK-1 IC50
T2 construct: a human glioblastoma-astrocytoma cell line that endogenously expresses the neurokinin-1 (NK-1) receptor; endogenous in cells; host or cells: U373 human glioblastoma-astrocytoma cells (membranes)
T2 sequence (P25103 whole entry): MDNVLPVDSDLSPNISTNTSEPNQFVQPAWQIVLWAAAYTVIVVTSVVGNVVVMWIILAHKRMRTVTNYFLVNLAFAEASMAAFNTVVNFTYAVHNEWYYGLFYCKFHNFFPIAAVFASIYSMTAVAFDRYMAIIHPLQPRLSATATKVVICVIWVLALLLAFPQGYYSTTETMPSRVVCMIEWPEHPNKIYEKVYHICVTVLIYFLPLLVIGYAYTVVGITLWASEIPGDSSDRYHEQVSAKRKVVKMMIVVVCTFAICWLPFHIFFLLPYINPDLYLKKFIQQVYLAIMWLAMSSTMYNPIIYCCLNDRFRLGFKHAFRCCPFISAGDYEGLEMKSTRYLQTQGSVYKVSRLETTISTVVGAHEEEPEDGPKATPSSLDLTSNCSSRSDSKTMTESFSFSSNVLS
Experimental: NK-1 Binding assay. U373 cells, a human glioblastoma-astrocytoma cell line that endogenously expresses the neurokinin-1 (NK-1) receptor, were grown in a monolayer culture at 37° C. in 5% CO2 and fed with Minimum Essential Medium (MEM) supplemented with 10% fetal bovine serum. Membranes were prepared as follows: Cells were washed twice with ice-cold phosphate-buffered saline (pH 7.4) and then incubated for 5-10 minutes with ice-cold 10 mM Tris buffer (pH 7.4) containing 5 mM EDTA. Cells were removed from plates, homogenized, and centrifuged at 32,000×g for 20 minutes. The resulting supernatant was discarded, and the pellet resuspended by homogenization in 50 mM Tris buffer (pH 7.4) containing 1 mM EDTA and centrifuged at 32,000×g for 20 minutes. The resulting supernatant was discarded, and the pellet resuspended by homogenization in NK-1 binding assay buffer (50 mM Tris-HCL (pH 7.4), 3 mM MnCl2, 200 μg/ml BSA, 5 μg/ml chymostatin, 40 μg/ml bacitracin and 4 μg/ml leupeptin).
On the day of an experiment the membrane preparation was thawed, homogenized and diluted with NK-1 binding assay buffer to the appropriate concentration. […] Substance P, at a concentration of […], and concentrations of drugs ranging from 10000 to 0.01 nM. Samples were incubated for 30 min at 20° C. then filtered through GF/B glass fiber filters (pretreated with 1% polyethyleneimine and 0.3% Triton X-100) using a Brandel cell harvester. The filters were then washed with 10 ml ice cold 50 mM Tris-HCL (pH 7.4) containing 3 mM MgCl2. […] The amount of radioligand bound in the presence and absence of competitor was analyzed by plotting (-)log drug concentration versus the amount of radioligand specifically bound. The midpoint of the displacement curve (IC50, nM), signifies the potency.

Row | IC50 ([1]; Table 1) [nM] | IC50 ([2]; Table 1) [nM] | IC50 ([1]; Table 2) [nM] | IC50 ([2]; Table 2) [nM] | Compound
1 | 0.01 to 100 | > 300 | – | – | FC(F)(F)c1cc(COCC2(c3ccccc3)CCNCC2)cc(-c2ccc(N3CCOCC3)nc2)c1
2 | 0.01 to 100 | 0.01 to 100 | – | – | N#Cc1ccc(-c2cc(COCC3(c4ccccc4)CCNCC3)cc(C(F)(F)F)c2)cn1
3 | 0.01 to 100 | 0.01 to 100 | – | – | FC(F)(F)c1cc(COCC2(c3ccccc3)CCNCC2)cc(-c2ccc(Cl)cc2)c1
4 | 0.01 to 100 | 0.01 to 100 | – | – | Cc1ccc(-c2cc(COCC3(c4ccccc4)CCNCC3)cc(C(F)(F)F)c2)cc1
5 | 0.01 to 100 | 0.01 to 100 | – | – | COc1ccc(-c2cc(COCC3(c4ccccc4)CCNCC3)cc(C(F)(F)F)c2)cc1
6 | 0.01 to 100 | 0.01 to 100 | – | – | Cc1cccc(-c2cc(COCC3(c4ccccc4)CCNCC3)cc(C(F)(F)F)c2)c1
7 | 0.01 to 100 | 0.01 to 100 | – | – | Fc1ccc(-c2cc(COCC3(c4ccccc4)CCNCC3)cc(C(F)(F)F)c2)cc1Cl
8 | 100 to 300 | 100 to 300 | – | – | FC(F)(F)c1cc(COCC2(c3ccccc3)CCNCC2)cc(-c2cc(C(F)(F)F)cc(C(F)(F)F)c2)c1
9 | 0.01 to 100 | 100 to 300 | – | – | FC(F)(F)c1cc(COCC2(c3ccccc3)CCNCC2)cc(-c2c(Cl)cccc2Cl)c1
10 | > 300 | > 300 | – | – | FC(F)(F)c1cc(COCC2(c3ccccc3)CCNCC2)cc(-c2cccc3c2Sc2ccccc2S3)c1
11 | 0.01 to 100 | 100 to 300 | – | – | FC(F)(F)c1cc(COCC2(c3ccccc3)CCNCC2)cc(-c2ccc(-c3ccccc3)cc2)c1
12 | 0.01 to 100 | 0.01 to 100 | – | – | CSc1ccc(-c2cc(COCC3(c4ccccc4)CCNCC3)cc(C(F)(F)F)c2)cc1
13 | 0.01 to 100 | 100 to 300 | – | – | Cc1ccccc1-c1cc(COCC2(c3ccccc3)CCNCC2)cc(C(F)(F)F)c1
14 | 100 to 300 | > 300 | – | – | FC(F)(F)c1cc(COCC2(c3ccccc3)CCNCC2)cc(-c2ccccc2-c2ccccc2)c1
15 | 0.01 to 100 | 0.01 to 100 | – | – | FC(F)(F)c1ccc(-c2cc(COCC3(c4ccccc4)CCNCC3)cc(C(F)(F)F)c2)cc1
16 | 0.01 to 100 | > 300 | – | – | Cc1cc(C)cc(-c2cc(COCC3(c4ccccc4)CCNCC3)cc(C(F)(F)F)c2)c1
17 | 0.01 to 100 | 0.01 to 100 | – | – | Cc1ccc(-c2cc(COCC3(c4ccccc4)CCNCC3)cc(C(F)(F)F)c2)cc1[N+](=O)[O-]
18 | 0.01 to 100 | 0.01 to 100 | – | – | Fc1cccc(-c2cc(COCC3(c4ccccc4)CCNCC3)cc(C(F)(F)F)c2)c1
19 | 100 to 300 | 100 to 300 | – | – | FC(F)(F)c1cc(COCC2(c3ccccc3)CCNCC2)cc(-c2ccc3ccccc3c2)c1
20 | 0.01 to 100 | 100 to 300 | – | – | CCOc1cccc(-c2cc(COCC3(c4ccccc4)CCNCC3)cc(C(F)(F)F)c2)c1
21 | 0.01 to 100 | 0.01 to 100 | – | – | Fc1ccccc1-c1cc(COCC2(c3ccccc3)CCNCC2)cc(C(F)(F)F)c1
22 | – | – | 0.01 to 100 | 0.01 to 100 | Cn1cc(-c2cc(COCC3(c4ccccc4)CCNCC3)cc(C(F)(F)F)c2)cn1
23 | – | – | 0.01 to 100 | 100 to 300 | Fc1cnc(Cl)c(-c2cc(COCC3(c4ccccc4)CCNCC3)cc(C(F)(F)F)c2)c1
24 | – | – | 0.01 to 100 | 0.01 to 100 | FC(F)(F)c1cc(COCC2(c3ccccc3)CCNCC2)cc(-c2c(C(F)(F)F)cccc2C(F)(F)F)c1
25 | – | – | 0.01 to 100 | 0.01 to 100 | N#Cc1ccc(-c2cc(COCC3(c4ccccc4)CCNCC3)cc(C(F)(F)F)c2)cc1F
26 | – | – | 0.01 to 100 | 0.01 to 100 | Cc1cc(C#N)ccc1-c1cc(COCC2(c3ccccc3)CCNCC2)cc(C(F)(F)F)c1
27 | – | – | 0.01 to 100 | 0.01 to 100 | N#Cc1ccc(-c2cc(COCC3(c4ccccc4)CCNCC3)cc(C(F)(F)F)c2)nc1
